Reference: patent publication US20260317367A1, “SALTS INCLUDING CRYSTALLINE SALTS OF 25-HYDROXY-CHOLEST-5-EN-3-SULFATE AND METHODS FOR PREPARING SAME” (Durect Corporation, priority 2022, published 2026)
Counter-ions that a name gives are not always drawn. Blank lines part the entries; values can stand above or below the molecule they belong to.

Columns and labels:
Assay type in all cases: physicochemical
[1] = Solid-state chemical stability of 25HC3S salts at 2-8° C., 60° C. and 80° C. (HPLC assay and degradation products); settings: for % Impurities, Total / % Impurities, 25-HC: ND = Not Detected; for % Impurities, 25-HC: 25-Hydroxy-Cholesterol; for % Recovery: vs 2-8° C.
Procedure, shortened: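 Crystalline 25HC3S salts (~25 mg powder per vial) stored at 2-8° C. or 80° C., pulled at 3 and 6 weeks; some 3-week 2-8° C. vials moved to 60° C. for 1 week. Dissolved in 100% methanol (sonication/vortexing, centrifugation or dilution), then HPLC against 25HC3S sodium standards (0.75-1.25 mg/mL) for assay and degradants.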

[2] = Solubility of 25HC3S salts after one day at room temperature (HPLC, as free acid); settings: for Solubility in FaSSGF: Fasted State Simulated Gastric Fluid, pH 1.6, room temperature; for Solubility in FeSSIF: Fed State Simulated Intestinal Fluid, pH 4.9 to 5.0, room temperature
Procedure, shortened: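 HPLC quantified the clear supernatant after centrifugation, with organic-solvent samples diluted in water:MeOH 95:5 and aqueous ones undiluted; results are mg/mL as free acid (LOD 0.0007 mg/mL). Each salt was first equilibrated as a suspension with excess solid for one day on a room-temperature shaker.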

[3] = Dynamic vapor sorption (DVS), hygroscopicity; settings: DVS; for Water uptake (weight gain) up to about 95% relative humidity: 5% to about 95% RH
[4] = 60° C., 1 wk, listed as 25HC3S meglumine
[5] = room temperature, one day, listed as crystalline 25HC3S meglumine
[6] = 2-8° C., 3 wk, listed as 25HC3S tromethammonium
[7] = 80° C., 3 wk, listed as 25HC3S tromethammonium
[8] = 80° C., 5 wk, listed as 25HC3S tromethammonium
[9] = 80° C., 5 wk, 50400 min, listed as 25HC3S tromethammonium
[10] = listed as crystalline 25HC3S tromethammonium
[11] = 80° C., 5 wk, 50400 min, listed as 25HC3S benzathine
[12] = room temperature, one day, listed as crystalline 25HC3S benzathine
[13] = room temperature, one day, listed as benzathine salt of 25HC3S
[14] = one day, as free acid, 1440 min
[15] = listed as crystalline 25HC3S benzathine
[16] = 2-8° C., 3 wk, listed as 25HC3S diethanolamine
[17] = 2-8° C., 5 wk, listed as 25HC3S diethanolamine
[18] = 80° C., 3 wk, listed as 25HC3S diethanolamine
[19] = 80° C., 5 wk, listed as 25HC3S diethanolamine
[20] = 80° C., 5 wk, 50400 min, listed as 25HC3S diethanolamine
[21] = room temperature, one day, listed as crystalline 25HC3S diethanolamine

Assay ([1]; 2-8° C., 3 wk, 30240 min, listed as 25HC3S meglumine): 98.3 % w/w
% Impurities, Total ([1]; 2-8° C., 3 wk, listed as 25HC3S meglumine): 0.9%
% Impurities, 25-HC [1, 4]: 0.4%
Physical and chemical solid-state stability (comments) ([1]; 60° C., 1 week, listed as 25HC3S Meglumine): Stable after 1 week at 60 °C
Assay ([1]; 60° C., 1 wk (after 3 weeks at 2-8° C.), 10080 min, listed as 25HC3S meglumine, 10080 min): 104.6 % w/w
% Recovery of 2-8° C./3 wk vs 60° C./1 wk ([1]; 60° C., 1 wk, 10080 min, listed as 25HC3S meglumine): 106.4%
% Impurities, Total [1, 4]: 1.7%
Physical and chemical solid-state stability (comments) ([1]; 80° C., 3 weeks, listed as 25HC3S Meglumine): totally decomposed after 3
% Recovery ([1]; 80° C., 3 wk, 30240 min, listed as 25HC3S meglumine, 30240 min): 0.0%
Assay ([1]; 80° C., 3 wk, 30240 min, listed as 25HC3S meglumine): 0.0 % w/w
% Impurities, Total ([1]; 80° C., 3 wk, listed as 25HC3S meglumine): 100.3%
Stability after 1 week at 60° C. (in words) ([1]; solid state, 60° C., 1 week (after 3 weeks at 2-8° C.)): stable
Stability after 3 weeks at 80° C. (in words) ([1]; solid state, 80° C., 3 weeks): totally decomposed
Solubility in FaSSGF (in words) ([2]; room temperature, one day): high solubility
Solubility in FaSSGF (in words) [2, 5]: relatively high solubility
Solubility in FaSSIF (in words) ([2]; room temperature, one day): high solubility
Solubility in FaSSGF ([2]; one day, as free acid, LOD 0.0007 mg/mL, 1440 min): 48 µg/mL
Solubility in FeSSIF (in words) ([2]; room temperature, one day): high solubility
Solubility in saline / 0.9% sodium chloride (in words) [2, 5]: low solubility
Water uptake, plateau above 35% RH ([3]; stable plateau above 35% relative humidity): about 3%
Compound: CC(CCCC(C)(C)O)C1CCC2C3CC=C4CC(OS(=O)(=O)O)CCC4(C)C3CCC12C (centres unmarked) [Salt #7]

Assay ([1]; 2-8° C., 3 wk, 30240 min, listed as 25HC3S tromethammonium): 99.4 % w/w
% Impurities, Total [1, 6]: 0.9%
Assay ([1]; 2-8° C., 5 wk, 50400 min, listed as 25HC3S tromethammonium): 105.4 % w/w
% Impurities, Total ([1]; 2-8° C., 5 wk, listed as 25HC3S tromethammonium): 0.7%
% Impurities, 25-HC [1, 6]: 0.1%
% Impurities, 25-HC [1, 7]: 0.1%
% Impurities, 25-HC [1, 8]: 2.1%
Stressed stability at 80° C. (in words) ([1]; 80° C.): good, stressed stability
Physical and chemical solid-state stability (comments) ([1]; 80° C., 3 weeks, listed as 25HC3S Tromethammonium): Stable after 3 weeks at 80 °C
% Recovery ([1]; 80° C., 3 wk, 30240 min, listed as 25HC3S tromethammonium, 30240 min): 99.8%
Assay ([1]; 80° C., 3 wk, 30240 min, listed as 25HC3S tromethammonium): 99.2 % w/w
% Impurities, Total [1, 7]: 1.2%
% Recovery, 2-8° C./5 wk vs 80° C./5 wk [1, 9]: 91.1%
Assay [1, 9]: 96.0 % w/w
% Impurities, Total [1, 8]: 12.3%
Stability after 3 weeks at 80° C. (in words) ([1]; solid state, 80° C., 3 weeks): stable
degraded at 840 h ([1]; solid state, 80° C., 5 weeks, read-out: Degradation based on % Recovery to the 2-8° C. control samples): ~9%
Solubility in FaSSGF (in words) ([2]; room temperature, one day): high solubility
Solubility in FaSSIF (in words) ([2]; room temperature, one day): high solubility
Solubility in FeSSIF (in words) ([2]; room temperature, one day): high solubility
Solubility in saline / 0.9% sodium chloride (in words) ([2]; room temperature, one day, listed as crystalline 25HC3S tromethammonium): low solubility
Water uptake (weight gain) up to about 95% relative humidity [3, 10]: over 20%
Hygroscopicity (in words) [3, 10]: hygroscopic
Compound: CC(CCCC(C)(C)O)C1CCC2C3CC=C4CC(OS(=O)(=O)O)CCC4(C)C3CCC12C (centres unmarked) [Salt #8]

Assay ([1]; 2-8° C., 3 wk, 30240 min, listed as 25HC3S benzathine): 87.6 % w/w
% Impurities, Total ([1]; 2-8° C., 3 wk, listed as 25HC3S benzathine): 64.0%
Assay ([1]; 2-8° C., 5 wk, 50400 min, listed as 25HC3S benzathine): 77.1 % w/w
% Impurities, Total ([1]; 2-8° C., 5 wk, listed as 25HC3S benzathine): 64.2%
Change of assay value (in words) ([1]; 3 weeks and 5 weeks, 2-8° C. and 80° C.): dropped at a similar rate
% Recovery ([1]; 80° C., 3 wk, 30240 min, listed as 25HC3S benzathine, 30240 min): 97.4%
Assay ([1]; 80° C., 3 wk, 30240 min, listed as 25HC3S benzathine): 85.3 % w/w
% Impurities, Total ([1]; 80° C., 3 wk, listed as 25HC3S benzathine): 64.3%
% Recovery, 2-8° C./5 wk vs 80° C./5 wk [1, 11]: 91.8%
Assay [1, 11]: 70.8 % w/w
% Impurities, Total ([1]; 80° C., 5 wk, listed as 25HC3S benzathine): 65.3%
degraded ([1]; solid state, 3 weeks and 5 weeks, 2-8° C. and 80° C., read-out: Degradation by area normalization): 64 to 65%
Solubility in 5% Dextrose ([2]; 5% dextrose, room temperature, one day, as free acid, LOD 0.0007 mg/mL): No solubilized drug was detected
Solubility in FaSSGF (in words) [2, 12]: low solubility
Solubility in FaSSIF (in words) [2, 13]: low solubility
Solubility in FaSSGF ([2]; one day, as free acid, LOD 0.0007 mg/mL): no solubilized drug was detected
Solubility in FaSSIF ([2]; Fasted State Simulated Intestinal Fluid, room temperature, one day, as free acid, 1440 min): 4 µg/mL
Solubility in FeSSIF (in words) [2, 13]: low solubility
Solubility in FeSSIF [2, 14]: 25 µg/mL
Solubility in all aqueous and organic solvents (in words) ([2]; all the aqueous and organic solvents examined): lowest solubility
Solubility in saline / 0.9% sodium chloride (in words) [2, 12]: low solubility
solubility at 24 h ([2]; water, room temperature, one day, as 25HC3S free acid, read-out: Solubility in water): 6 µg/mL
Water uptake (weight gain) up to about 95% relative humidity [3, 15]: less than 0.5%
Reversibility of water uptake (in words) ([3]; RH reduced from 95% to 5%, listed as crystalline 25HC3S benzathine): reversibly lose all that water
Hygroscopicity (in words) [3, 15]: low hygroscopicity
Compound: CC(CCCC(C)(C)O)C1CCC2C3CC=C4CC(OS(=O)(=O)O)CCC4(C)C3CCC12C (centres unmarked) [Salt #9]
degradation by area normalization ([1]; 3 and 5 weeks, 2-8° C. and 80° C.): normalization were all approximately 64%-65% indicating that thermal
assay drop (comments) ([1]; 3 weeks at 2-8° C. and 80° C. as well as after 5 weeks): The assay dropped at a similar rate after 3 weeks at 2-8 °C and 80 °C

Assay ([1]; 2-8° C., 3 wk, 30240 min, listed as 25HC3S diethanolamine): 100.2 % w/w
% Impurities, Total [1, 16]: 1.8%
Assay ([1]; 2-8° C., 5 wk, 50400 min, listed as 25HC3S diethanolamine): 107.0 % w/w
% Impurities, Total [1, 17]: 1.9%
Overall physical and chemical stability (in words) ([1]; 2-8° C., 60° C., 80° C.): physically and chemically stable
Overall physical and chemical stability (in words) ([1]; 2-8° C., 60° C., 80° C., listed as diethanolamine): relatively stable
% Impurities, 25-HC [1, 16]: 0.4%
% Impurities, 25-HC [1, 17]: 0.4%
% Impurities, 25-HC [1, 18]: 0.9%
% Impurities, 25-HC [1, 19]: 1.2%
Stressed stability at 80° C. (in words) ([1]; 80° C.): good, stressed stability
% Recovery ([1]; 80° C., 3 wk, 30240 min, listed as 25HC3S diethanolamine, 30240 min): 99.4%
Assay ([1]; 80° C., 3 wk, 30240 min, listed as 25HC3S diethanolamine): 99.6 % w/w
% Impurities, Total [1, 18]: 2.8%
% Recovery, 2-8° C./5 wk vs 80° C./5 wk [1, 20]: 97.7%
Assay [1, 20]: 104.5 % w/w
% Impurities, Total [1, 19]: 3.5%
Stability after 5 weeks at 80° C. (in words) ([1]; solid state, 80° C., 5 weeks): stable
Solubility in FaSSGF (in words) ([2]; room temperature, one day): high solubility
Solubility in FaSSIF (in words) ([2]; room temperature, one day): high solubility
Solubility in FaSSIF (in words) [2, 21]: relatively high solubility
Solubility in FeSSIF (in words) ([2]; room temperature, one day): high solubility
Solubility in FeSSIF (in words) [2, 21]: relatively high solubility
Solubility in FeSSIF [2, 14]: 858 µg/mL
Solubility in methanol (in words) ([2]; MeOH, room temperature, one day): did not reach saturation
Solubility in saline / 0.9% sodium chloride (in words) [2, 21]: low solubility
Relative humidity above which the salt is hygroscopic [3]: above 75 % relative humidity
Compound: CC(CCCC(C)(C)O)C1CCC2C3CC=C4CC(OS(=O)(=O)O)CCC4(C)C3CCC12C (centres unmarked) [Salt #10]
Physical and chemical solid-state stability (comments) ([1]; 80° C., 5 weeks): Stable after 5 weeks at 80 °C physically and chemically.
